The values that follow come from patent US8642799B2, “Cysteine protease inhibitors for the treatment of parasitic diseases” (Merck Canada Inc., priority 2007, dated 2014).

A word on the IC50: it is the concentration at which inhibition is half-maximal. A higher IC50 goes with a need for much substance.

Sequence of cruzipain (P25779 123-467): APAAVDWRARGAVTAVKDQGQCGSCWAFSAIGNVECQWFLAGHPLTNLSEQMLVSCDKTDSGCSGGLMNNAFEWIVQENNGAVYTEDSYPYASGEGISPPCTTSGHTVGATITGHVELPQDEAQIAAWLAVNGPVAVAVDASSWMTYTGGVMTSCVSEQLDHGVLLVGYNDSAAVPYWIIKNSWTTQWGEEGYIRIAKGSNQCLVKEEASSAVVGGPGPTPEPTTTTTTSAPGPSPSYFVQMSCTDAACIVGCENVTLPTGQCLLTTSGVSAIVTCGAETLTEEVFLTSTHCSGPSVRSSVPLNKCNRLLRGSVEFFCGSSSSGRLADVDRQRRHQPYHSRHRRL

This assay has as its target cruzipain (Trypanosoma cruzi, UniProt P25779). Description: biochemical. Conditions: 50 pM cruzipain, pH 5.5, 15 minutes preincubation, 2 μM Z-Phe-Arg-AMC substrate. On the procedure:
The assay solutions were mixed and incubated for 15 minutes at room temperature prior to the addition of 2 μM of Z-Phe-Arg-AMC substrate. […] Percent of inhibition were calculated by fitting experimental values to standard mathematical model for dose response curve.
Molecule `CC(C)(F)C[C@H](N[C@@H](c1ccc(-c2ccc(C3(C(=O)NCC(N)=O)CC3)cc2)cc1)C(F)(F)F)C(=O)N[C@H](C#N)Cc1ccccc1` [Example 55, 1-[4′-((S)-1-{(S)-1-[((S)-Benzyl-cyano-methyl)-carbamoyl]-3-fluoro-3-methyl-butylamino}-2,2,2-trifluoro-ethyl)-biphenyl-4-yl]-cyclopropanecarboxylic acid carbamoylmethyl-amide] returned an IC50 of 1.9 nM.

Take `CC(C)(F)C[C@H](N[C@@H](c1ccc(-c2ccc(C3(C(=O)NC4CC4)CC3)cc2)cc1)C(F)(F)F)C(=O)N[C@H](C#N)Cc1ccccc1` [Example 56, 1-[4′-((S)-1-{(S)-1-[((S)-Benzyl-cyano-methyl)-carbamoyl]-3-fluoro-3-methyl-butylamino}-2,2,2-trifluoro-ethyl)-biphenyl-4-yl]-cyclopropanecarboxylic acid cyclopropylamide]: the IC50 came out at 3.7 nM.

`C=CCNC(=O)C1(c2ccc(-c3ccc([C@H](N[C@@H](CC(C)(C)F)C(=O)N[C@H](C#N)Cc4ccccc4)C(F)(F)F)cc3)cc2)CC1` [Example 57, 1-[4′-((S)-1-{(S)-1-[((S)-Benzyl-cyano-methyl)-carbamoyl]-3-fluoro-3-methyl-butylamino}-2,2,2-trifluoro-ethyl)-biphenyl-4-yl]-cyclopropanecarboxylic acid allylamide] returned an IC50 of 4.3 nM.

`CC(C)[C@H](N[C@@H](c1ccc(-c2ccc(C3(C(=O)O)CC3)cc2)cc1)C(F)(F)F)C(=O)N[C@H](C#N)Cc1ccc(C#N)cc1F` [Example 58, 1-{4′-[(S)-1-((S)-1-{[(S)-Cyano-(4-cyano-2-fluoro-benzyl)-methyl]-carbamoyl}-2-methyl-propylamino)-2,2,2-trifluoro-ethyl]-biphenyl-4-yl}-cyclopropanecarboxylic acid] yielded a concentration for half-maximal inhibition (IC50) of 0.3 nM.

Turning to `CC(C)[C@H](N[C@@H](c1ccc(-c2ccc(C3(C(=O)NCCO)CC3)cc2)cc1)C(F)(F)F)C(=O)N[C@H](C#N)Cc1ccc(C#N)cc1F` [Example 59, 1-{4′-[(S)-1-((S)-1-{[(S)-Cyano-(4-cyano-2-fluoro-benzyl)-methyl]-carbamoyl}-2-methyl-propylamino)-2,2,2-trifluoro-ethyl]-biphenyl-4-yl}-cyclopropanecarboxylic acid (2-hydroxy-ethyl)-amide], half-maximal inhibition (IC50) required 0.1 nM.

Regarding `CC(C)[C@H](N[C@@H](c1ccc(-c2ccc([C@@H](O)C(F)F)cc2)cc1)C(F)(F)F)C(=O)N[C@H](C#N)Cc1ccc(C(F)(F)F)cc1F` [Example 61, (S)-N-[(S)-Cyano-(2-fluoro-4-trifluoromethyl-benzyl)-methyl]-2-{(S)-1-[4′-((R)-2,2-difluoro-1-hydroxy-ethyl)-biphenyl-4-yl]-2,2,2-trifluoro-ethylamino}-3-methyl-butyramide], inhibition was half-maximal at 1.5 nM (IC50).

`CC(C)[C@H](N[C@@H](c1ccc(-c2ccc(S(C)(=O)=O)cc2)cc1)C(F)(F)F)C(=O)N[C@H](C#N)Cc1ccc(C(F)(F)F)cc1F` [Example 62, (S)-N-[(S)-Cyano-(2-fluoro-4-trifluoromethyl-benzyl)-methyl]-3-methyl-2-[(S)-2,2,2-trifluoro-1-(4′-methanesulfonyl-biphenyl-4-yl)-ethylamino]-butyramide] returned an IC50 of 0.4 nM.

With `CC(C)(F)C[C@H](N[C@@H](c1ccc(-c2ccc(S(C)(=O)=O)cc2)cc1)C(F)(F)F)C(=O)N[C@H](C#N)Cc1cccnc1` [Example 64, (S)-4-Fluoro-4-methyl-2-[(S)-2,2,2-trifluoro-1-(4′-methanesulfonyl-biphenyl-4-yl)-ethylamino]-pentanoic acid ((S)-cyano-pyridin-3-ylmethyl-methyl)-amide], inhibition was half-maximal at 12.6 nM (IC50).

Molecule `CC(C)(F)C[C@H](N[C@@H](c1ccc(-c2ccc(S(C)(=O)=O)cc2)cc1)C(F)(F)F)C(=O)N[C@H](C#N)Cc1cccc[n+]1[O-]` [Example 65, (S)-4-Fluoro-4-methyl-2-[(S)-2,2,2-trifluoro-1-(4′-methanesulfonyl-biphenyl-4-yl)-ethylamino]-pentanoic acid [(S)-cyano-(1-oxy-pyridin-2-ylmethyl)-methyl]-amide] had a concentration for half-maximal inhibition (IC50) of 15 nM.

Molecule `CC(C)(F)C[C@H](N[C@@H](c1ccc(-c2ccc(S(C)(=O)=O)cc2)cc1)C(F)(F)F)C(=O)N[C@H](C#N)Cc1c(F)cc(Br)cc1F` [Example 66, (S)-4-Fluoro-4-methyl-2-[(S)-2,2,2-trifluoro-1-(4′-methanesulfonyl-biphenyl-4-yl)-ethylamino]-pentanoic acid [(S)-(4-bromo-2,6-difluorobenzyl)-cyano-methyl]-amide] registered an IC50 of 1.6 nM.

Regarding `CC(C)(F)C[C@H](N[C@@H](c1ccc(-c2ccc(S(C)(=O)=O)cc2)cc1)C(F)(F)F)C(=O)N[C@H](C#N)Cc1c(F)cc(C#N)cc1F` [Example 67, (S)-4-Fluoro-4-methyl-2-[(S)-2,2,2-trifluoro-1-(4′-methanesulfonyl-biphenyl-4-yl)-ethylamino]-pentanoic acid [(S)-cyano-(4-cyano-2,6-difluoro-benzyl)-methyl]-amide], the half-inhibitory concentration (IC50) came out at 0.9 nM.

The molecule `CS(=O)(=O)c1ccc(-c2ccc([C@H](N[C@H](C(=O)N[C@H](C#N)Cc3ccc(C#N)cc3F)C3CC3)C(F)(F)F)cc2)cc1` [Example 68, (S)-N-[(S)-Cyano-(4-cyano-2-fluoro-benzyl)-methyl]-2-cyclopropyl-2-[(S)-2,2,2-trifluoro-1-(4′-methanesulfonyl-biphenyl-4-yl)-ethylamino]-acetamide] yielded an IC50 of 4.4 nM.

`N#Cc1ccc(C[C@@H](C#N)NC(=O)[C@@H](N[C@@H](c2ccc(-c3ccc([C@@H](O)C(F)F)cc3)cc2)C(F)(F)F)C2CC2)c(F)c1` [Example 69, (S)-N-[(S)-Cyano-(4-cyano-2-fluoro-benzyl)-methyl]-2-cyclopropyl-2-{(S)-1-[4′-((R)-2,2-difluoro-1-hydroxy-ethyl)-biphenyl-4-yl]-2,2,2-trifluoro-ethylamino}-acetamide] displayed an IC50 of 4.3 nM.

As for `CC(C)[C@H](N[C@@H](c1ccc(-c2ccc(S(C)(=O)=O)cc2)cc1)C(F)(F)F)C(=O)N[C@H](C#N)Cc1c(F)cc(Br)cc1F` [Example 70, (S)-N-[(S)-(4-Bromo-2,6-difluoro-benzyl)-cyano-methyl]-3-methyl-2-[(S)-2,2,2-trifluoro-1-(4′-methanesulfonyl-biphenyl-4-yl)-ethylamino]-butyramide], the IC50 was 0.6 nM.

`CC(C)[C@H](N[C@@H](c1ccc(-c2ccc([C@@H](O)C(F)F)cc2)cc1)C(F)(F)F)C(=O)N[C@H](C#N)Cc1c(F)cc(Br)cc1F` [Example 71, (S)-N-[(S)-(4-Bromo-2,6-difluoro-benzyl)-cyano-methyl]-2-{(S)-1-[4′-((R)-2,2-difluoro-1-hydroxy-ethyl)-biphenyl-4-yl]-2,2,2-trifluoro-ethylamino}-3-methyl-butyramide] returned an IC50 of 2.1 nM.

On to `CC(C)[C@H](N[C@@H](c1ccc(-c2ccc(S(C)(=O)=O)cc2)cc1)C(F)(F)F)C(=O)N[C@H](C#N)Cc1c(F)cc(C#N)cc1F` [Example 72, (S)-N-[(S)-Cyano-(4-cyano-2,6-difluoro-benzyl)-methyl]-3-methyl-2-[(S)-2,2,2-trifluoro-1-(4,- methanesulfonyl-biphenyl-4-yl)-ethylamino]-butyramide], for which the IC50 was 0.5 nM.

In turn, `CC(C)[C@H](N[C@@H](c1ccc(-c2ccc([C@@H](O)C(F)F)cc2)cc1)C(F)(F)F)C(=O)N[C@H](C#N)Cc1c(F)cc(C#N)cc1F` [Example 73, (S)-N-[(S)-Cyano-(4-cyano-2,6-difluoro-benzyl)-methyl]-2-{(S)-1-[4,- ((R)-2,2-difluoro-1-hydroxy-ethyl)-biphenyl-4-yl]-2,2,2-trifluoro-ethylamino}-3-methyl-butyramide] gave an IC50 of 0.7 nM.

For `CC(C)(F)C[C@H](N[C@@H](c1ccc(-c2ccc(S(C)(=O)=O)cc2)cc1)C(F)(F)F)C(=O)N[C@H](C#N)Cc1ccc[n+]([O-])c1` [Example 74, (S)-4-Fluoro-4-methyl-2-[(S)-2,2,2-trifluoro-1-(4′-methanesulfonyl-biphenyl-4-yl)-ethylamino]-pentanoic acid [(S)-cyano-(1-oxy-pyridin-3-ylmethyl)-methyl]-amide], the IC50 amounted to 39 nM.

`CC(C)(F)C[C@H](N[C@@H](c1ccc(-c2ccc(S(C)(=O)=O)cc2)cc1)C(F)(F)F)C(=O)N[C@H](C#N)Cc1cc[n+]([O-])cc1` [Example 75, (S)-4-Fluoro-4-methyl-2-[(S)-2,2,2-trifluoro-1-(4′-methanesulfonyl-biphenyl-4-yl)-ethylamino]-pentanoic acid [(S)-cyano-(1-oxy-pyridin-4-ylmethyl)-methyl]-amide] came in with a concentration for half-maximal inhibition (IC50) of 120 nM.

As for `CC(C)(F)C[C@H](N[C@@H](c1ccc(-c2ccc(S(C)(=O)=O)cc2)cc1)C(F)(F)F)C(=O)N[C@H](C#N)Cc1c(F)cccc1F` [Example 76, (S)-4-Fluoro-4-methyl-2-[(S)-2,2,2-trifluoro-1-(4′-methanesulfonyl-biphenyl-4-yl)-ethylamino]-pentanoic acid [(S)-cyano-(2,6-difluoro-benzyl)-methyl]-amide], half-maximal inhibition (IC50) required 7.1 nM.
